In ChEMBL document CHEMBL1806420, “Design, synthesis and antimycobacterial evaluation of novel 3-substituted-N-aryl-6,7-dimethoxy-3a,4-dihydro-3H-indeno[1,2-c]pyrazole-2-carboxamide analogues” (Bioorg Med Chem Lett, 2011):
≈ marks a conversion by molar mass, not a printed value.

Tests used:
[1] = tested on: Mycobacterium tuberculosis; experiment: Antimycobacterial activity against Mycobacterium tuberculosis H37Rv by agar dilution method; type: functional
[2] = tested on: Vero; experiment: Cytotoxicity against african green monkey Vero cells upto 62.5 ug/ml after 72 hrs by MTT assay; type: cell-based; conditions: chlorocebus sabaeus

## COc1cc2c(cc1OC)C1=NN(C(=O)Nc3ccc(F)c(Cl)c3)C(c3ccccc3)C1C2 (configuration not stated)
[1]
  MIC: 6.25 µM (≈ 2.91 µg/mL)
[2]
  Activity: Non-toxic

## COc1ccc(C2C3Cc4cc(OC)c(OC)cc4C3=NN2C(=O)Nc2ccc(F)c(Cl)c2)cc1 (configuration not stated)
[1]
  MIC: > 6.25 µM

## COc1cc2c(cc1OC)C1=NN(C(=O)Nc3ccc(F)cc3)C(c3ccncc3)C1C2 (configuration not stated)
[1]
  MIC: 3.12 µM (≈ 1.35 µg/mL)
[2]
  Activity: Non-toxic

## COc1cc2c(cc1OC)C1=NN(C(=O)Nc3ccc(F)cc3)C(c3ccccc3Cl)C1C2 (configuration not stated)
[1]
  MIC: 6.25 µM (≈ 2.91 µg/mL)
[2]
  Activity: Non-toxic

## COc1cc2c(cc1OC)C1=NN(C(=O)Nc3ccc(F)cc3)C(c3ccc(F)cc3)C1C2 (configuration not stated)
[1]
  MIC: 0.78 µM (≈ 0.351 µg/mL)
[2]
  Activity: Non-toxic

## COc1ccc(C2C3Cc4cc(OC)c(OC)cc4C3=NN2C(=O)Nc2ccc(F)cc2)cc1OC (configuration not stated)
[1]
  MIC: > 10 µM
[2]
  Activity: Non-toxic

## COc1cc2c(cc1OC)C1=NN(C(=O)Nc3ccc(F)cc3)C(c3ccccc3)C1C2 (configuration not stated)
[1]
  MIC: > 6.25 µM

## COc1ccc(C2C3Cc4cc(OC)c(OC)cc4C3=NN2C(=O)Nc2ccc(F)cc2)cc1 (configuration not stated)
[1]
  MIC: 10 µM (≈ 4.61 µg/mL)
[2]
  Activity: Non-toxic

## COc1cc2c(cc1OC)C1=NN(C(=O)Nc3ccc(Br)cc3)C(c3ccncc3)C1C2 (configuration not stated)
[1]
  MIC: 6.25 µM (≈ 3.08 µg/mL)
[2]
  Activity: Non-toxic

## COc1cc2c(cc1OC)C1=NN(C(=O)Nc3ccc(Br)cc3)C(c3ccccc3Cl)C1C2 (configuration not stated)
[1]
  MIC: > 6.25 µM

## COc1cc2c(cc1OC)C1=NN(C(=O)Nc3ccc(Br)cc3)C(c3ccc(F)cc3)C1C2 (configuration not stated)
[1]
  MIC: 3.12 µM (≈ 1.59 µg/mL)
[2]
  Activity: Non-toxic

## COc1ccc(C2C3Cc4cc(OC)c(OC)cc4C3=NN2C(=O)Nc2ccc(Br)cc2)cc1OC (configuration not stated)
[1]
  MIC: > 10 µM
[2]
  Activity: Non-toxic

## COc1cc2c(cc1OC)C1=NN(C(=O)Nc3ccc(Br)cc3)C(c3ccccc3)C1C2 (configuration not stated)
[1]
  MIC: > 6.25 µM

## COc1ccc(C2C3Cc4cc(OC)c(OC)cc4C3=NN2C(=O)Nc2ccc(Br)cc2)cc1 (configuration not stated)
[1]
  MIC: > 10 µM
[2]
  Activity: Non-toxic

## COc1cc2c(cc1OC)C1=NN(C(=O)Nc3ccc(F)c(Cl)c3)C(c3ccncc3)C1C2 (configuration not stated)
[1]
  MIC: > 6.25 µM

## COc1cc2c(cc1OC)C1=NN(C(=O)Nc3ccc(F)c(Cl)c3)C(c3ccccc3Cl)C1C2 (configuration not stated)
[1]
  MIC: 6.25 µM (≈ 3.13 µg/mL)
[2]
  Activity: Non-toxic

## COc1cc2c(cc1OC)C1=NN(C(=O)Nc3ccc(F)c(Cl)c3)C(c3ccc(F)cc3)C1C2 (configuration not stated)
[1]
  MIC: 0.78 µM (≈ 0.377 µg/mL)
[2]
  Activity: Non-toxic

## COc1ccc(C2C3Cc4cc(OC)c(OC)cc4C3=NN2C(=O)Nc2ccc(F)c(Cl)c2)cc1OC (configuration not stated)
[1]
  MIC: > 6.25 µM

## NNC(=O)c1ccncc1 [ISONIAZID]
[1]
  MIC: 0.78 µM (≈ 0.107 µg/mL)

## CO[C@H]1/C=C/O[C@@]2(C)Oc3c(C)c(O)c4c(O)c(c(/C=N/N5CCN(C)CC5)c(O)c4c3C2=O)NC(=O)/C(C)=C\C=C\[C@H](C)[C@H](O)[C@@H](C)[C@@H](O)[C@@H](C)[C@H](OC(C)=O)[C@@H]1C [RIFAMPIN]
[1]
  MIC: 0.006 µM (≈ 0.00494 µg/mL)
